Molecular target: thrombin (Homo sapiens, UniProt P00734)
Conditions: 1 μM final concentration, added to selected reaction wells; 15 clots from randomized sources
Protocol: Thrombin activity was measured as previously described by Beilin et al., (2001, Neuroreport: doi:10.1097/00001756-200108080-00013) in 10 L triplicates of clot-free buffer in a black Nunc 96 wells microplate by a fluorometric assay quantifying the cleavage of the synthetic peptide thrombin substrate Boc-Asp(OBzl)-Pro-Arg-AMC (I-1560, Bachem, Switzerland, 13 μM final concentration). Measurements were performed by the Infinite 2000 microplate reader (Tecan, infinite 200, Switzerland) with excitation and emission filters of 360±35 and 460±35 nm, respectively. For calibration, known concentrations of bovine thrombin (Sigma-Aldrich, Israel) were used in the same assay.

NAPAP
effect on thrombin activity profile (specificity check of the fluorescent signal): high and consistent abolition of thrombin activity profile

Reference: US12522855B2, “Methods and kits for identifying thrombus origin and optimizing post-ischemic event treatment” (TEL HASHOMER MEDICAL RESEARCH INFRASTRUCTURE AND SERVICES …, priority 2019, dated 2026)
